Measured values published in patent publication US5659038A, “5-vinyl-and 5-ethinyl-quinolone- and -naphthyridone-carboxylic acids” (Bayer Aktiengesellschaft, priority 1994, dated 1997).
In brackets after ≈: the same amount, converted by molar mass. Where a name gives a salt, the structure may show the parent alone. Read-outs that look alike come from different tables or passages of the source.

Tests used:
Type in all cases: cell-based
[1] = test system: Staphylococcus aureus 133; experiment: MIC, serial agar dilution
Protocol: (§1) The minimum inhibitory concentrations (MICs) were determined in serial dilution tests using Iso-Sensitest Agar (Oxoid). For each test substance, a series of agar plates was prepared which contained concentrations of the active compound which decreased as a result of dilution to twice the volume each time. The agar plates were inoculated using a Multipoint Inoculator (Denley). For inoculation, overnight cultures of the pathogens were used which had previously been diluted to such a concentration that each inoculation point contained approximately 10^4 colony-forming particles. The inoculated agar plates were incubated at 37° C., and the microbial growth was determined after approximately 20 hours. The MIC value (μg/ml) indicates the lowest concentration of active compound at which no growth was discernible with the naked eye.

[2] = test system: Staphylococcus aureus ICB 25701; experiment: MIC, serial agar dilution
Protocol: as §1

[3] = test system: Staphylococcus aureus ATTC 29213; experiment: MIC, serial agar dilution
Protocol: as §1

[4] = test system: Enterobater cloaceae 2427; experiment: MIC, serial agar dilution
Protocol: as §1

Enterobater aer.ICB 5240 = experiment: MIC, serial agar dilution
Protocol: as §1

[5] = test system: Enterococcus faecalis 9790; experiment: MIC, serial agar dilution
Protocol: as §1

E. coli Neumann = experiment: MIC, serial agar dilution; details: Escherichia coli
Protocol: as §1

[6] = test system: Enterococcus faecalis 27101; experiment: MIC, serial agar dilution
Protocol: as §1

Staph. Ky 469 We = experiment: MIC, veterinary microorganisms; details: 20 h
Protocol: as §1
(§2) Table 3 lists MIC values of compounds according to the invention against microorganisms which aye specific to veterinary medicine. The comparison compound shown in this case is enrofloxacin (ENRO), which is a therapeutic used in veterinary medicine.

Staph. Z433-4 LH = experiment: MIC, veterinary microorganisms; details: 20 h
Protocol: as §1, §2

E. coli G293 Lh = experiment: MIC, veterinary microorganisms; details: Escherichia coli, G293LH, 20 h
Protocol: as §1, §2

E. coli 21 Bui = experiment: MIC, veterinary microorganisms; details: Escherichia coli, 20 h
Protocol: as §1, §2

Staph. Z 318 Lh = experiment: MIC, veterinary microorganisms; details: 20 h
Protocol: as §1, §2

[7] = Staphylococcus aureus 133, Iso-Sensitest Agar, 37° C., approximately 20 hours, read-out: MIC
[8] = Staphylococcus aureus, ICB25701, 20 h
[9] = ATTC29213, Staphylococcus aureus ATTC 29213, Iso-Sensitest Agar, 37° C., approximately 20 hours, read-out: MIC
[10] = Enterobater cloaceae 2427, Iso-Sensitest Agar, 37° C., approximately 20 hours, read-out: MIC
[11] = Enterobater aer.ICB 5240, Iso-Sensitest Agar, 37° C., approximately 20 hours, read-out: MIC
[12] = Enterococcus faecalis 9790, Iso-Sensitest Agar, 37° C., approximately 20 hours, read-out: MIC
[13] = E. coli Neumann, Iso-Sensitest Agar, 37° C., approximately 20 hours, read-out: MIC
[14] = Enterococcus faecalis 27101, Iso-Sensitest Agar, 37° C., approximately 20 hours, read-out: MIC
[15] = ICB25701, Staphylococcus aureus ICB 25701, Iso-Sensitest Agar, 37° C., approximately 20 hours, read-out: MIC
[16] = Staphylococcus aureus, ATTC29213, 20 h

SMILES: C=Cc1c(F)c(N2C[C@@H]3CCCN[C@@H]3C2)c(F)c2c1c(=O)c(C(=O)O)cn2C1CC1 (relative stereo) [Compound 2, 1-cyclopropyl-7-(cis-2,8-diazabicyclo[4.3.0]non-8-yl)-6,8-difluoro-1,4-dihydro-4-oxo-5-vinyl-3-quinolinecarboxylic acid]
- MIC [1, 7]: 0.06 µg/mL (≈ 0.144 µM)
- MIC [2, 8]: 1 µg/mL (≈ 2.41 µM)
- MIC [3, 9]: 0.06 µg/mL (≈ 0.144 µM)
- MIC [4, 10]: 0.125 µg/mL (≈ 0.301 µM)
- MIC (Enterobater aer.ICB 5240; [11]): 16 µg/mL (≈ 38.5 µM)
- MIC [5, 12]: 0.125 µg/mL (≈ 0.301 µM)
- MIC (E. coli Neumann; [13]): 0.06 µg/mL (≈ 0.144 µM)
- MIC [6, 14]: 0.125 µg/mL (≈ 0.301 µM)

SMILES: C=Cc1c(F)c(N2CCN(C)CC2)c(F)c2c1c(=O)c(C(=O)O)cn2C1CC1 [Compound 1, 1-cyclopropyl-6,8-difluoro-1,4-dihydro-4-oxo-7-(4-methyl-1-piperazinyl)-4-oxo-5-vinyl-3-quinolinecarboxylic acid]
- MIC ([1]; Staphylococcus aureus, 133, 20 h): 0.25 µg/mL (≈ 0.642 µM)
- MIC [2, 15]: 64 µg/mL (≈ 164 µM)
- MIC [3, 16]: 0.25 µg/mL (≈ 0.642 µM)
- MIC ([4]; 20 h): 0.25 µg/mL (≈ 0.642 µM)
- MIC (Enterobater aer.ICB 5240; 20 h): 32 µg/mL (≈ 82.2 µM)
- MIC ([5]; Enterococcus faecalis, 9790, 20 h): 1 µg/mL (≈ 2.57 µM)
- MIC (E. coli Neumann; [13]): 0.06 µg/mL (≈ 0.154 µM)
- MIC ([6]; Enterococcus faecalis, 27101, 20 h): 1 µg/mL (≈ 2.57 µM)

SMILES: C=Cc1c(F)c(N2C[C@@H]3CCCN[C@@H]3C2)c(F)c2c1c(=O)c(C(=O)O)cn2C1CC1 [Compound 3, 1-cyclopropyl-7-(S,S-2,8-diazabicyclo[4.3.0]non-8-yl)-6,8-difluoro-1,4-dihydro-4-oxo-5-vinyl-3-quinolinecarboxylic acid]
- MIC [1, 7]: 0.03 µg/mL (≈ 0.0722 µM)
- MIC [2, 8]: 0.5 µg/mL (≈ 1.2 µM)
- MIC [3, 9]: 0.03 µg/mL (≈ 0.0722 µM)
- MIC [4, 10]: 0.06 µg/mL (≈ 0.144 µM)
- MIC (Enterobater aer.ICB 5240; 20 h): 8 µg/mL (≈ 19.3 µM)
- MIC [5, 12]: 0.125 µg/mL (≈ 0.301 µM)
- MIC (E. coli Neumann; [13]): ≤ 0.015 µg/mL
- MIC [6, 14]: 0.125 µg/mL (≈ 0.301 µM)

SMILES: C=Cc1c(F)c(N2CCC(N)C2)c(F)c2c1c(=O)c(C(=O)O)cn2C1CC1.Cl (stereo not shown) [Compound 5, 7-(3-aminopyrrolidin-1-yl)-1-cyclopropyl-6,8-difluoro-1,4-dihydro-4-oxo-5-vinyl-3-quinolinecarboxylic acid hydrochloride]
- MIC (Staph. Ky 469 We): 0.03 µg/mL
- MIC (Staph. Z433-4 LH): 0.03 µg/mL
- MIC (E. coli G293 Lh): 32 µg/mL
- MIC (E. coli 21 Bui): 16 µg/mL
- MIC (Staph. Z 318 Lh): 2 µg/mL
- MIC [1, 7]: 0.03 µg/mL
- MIC [2, 15]: 2 µg/mL
- MIC [3, 9]: ≤ 0.015 µg/mL
- MIC [4, 10]: ≤ 0.015 µg/mL
- MIC (Enterobater aer.ICB 5240; [11]): 4 µg/mL
- MIC [5, 12]: 0.125 µg/mL
- MIC (E. coli Neumann; [13]): ≤ 0.015 µg/mL
- MIC [6, 14]: 0.06 µg/mL

SMILES: C=Cc1c(F)c(N2CC3CC=CC(N)C3C2)c(F)c2c1c(=O)c(C(=O)O)cn2C1CC1 (stereo not shown) [Compound 6, 7-(4-amino-1,3,3a,4,7,7a-hexahydro-isoindol-2-yl)-1-cyclopropyl-6,8-difluoro-1,4-dihydro-4-oxo-5-vinyl-3-quinolinecarboxylic acid]
- MIC (Staph. Ky 469 We): 0.015 µg/mL (≈ 0.0351 µM)
- MIC (Staph. Z433-4 LH): 0.015 µg/mL (≈ 0.0351 µM)
- MIC (E. coli G293 Lh): 8 µg/mL (≈ 18.7 µM)
- MIC (E. coli 21 Bui): 4 µg/mL (≈ 9.36 µM)
- MIC (Staph. Z 318 Lh): 0.06 µg/mL (≈ 0.14 µM)
- MIC [1, 7]: ≤ 0.015 µg/mL
- MIC [2, 15]: 0.03 µg/mL (≈ 0.0702 µM)
- MIC [3, 9]: ≤ 0.015 µg/mL
- MIC [4, 10]: 0.125 µg/mL (≈ 0.292 µM)
- MIC (Enterobater aer.ICB 5240; [11]): 4 µg/mL (≈ 9.36 µM)
- MIC [5, 12]: 0.03 µg/mL (≈ 0.0702 µM)
- MIC (E. coli Neumann; [13]): 0.015 µg/mL (≈ 0.0351 µM)
- MIC [6, 14]: 0.03 µg/mL (≈ 0.0702 µM)

SMILES: C=Cc1c(F)c(N2CC3CC=CC(NC)C3C2)c(F)c2c1c(=O)c(C(=O)O)cn2C1CC1 (stereo not shown) [Compound 7, 7-(4-methylamino-1,3,3a,4,7,7a-hexahydro-isoindol-2-yl)-1-cyclopropyl-6,8-difluoro-1,4-dihydro-4-oxo-5-vinyl-3-quinolinecarboxylic acid]
- MIC [1, 7]: ≤ 0.015 µg/mL
- MIC [2, 15]: 0.03 µg/mL (≈ 0.068 µM)
- MIC [3, 9]: ≤ 0.015 µg/mL
- MIC [4, 10]: 0.125 µg/mL (≈ 0.283 µM)
- MIC (Enterobater aer.ICB 5240; 20 h): 8 µg/mL (≈ 18.1 µM)
- MIC [5, 12]: 0.03 µg/mL (≈ 0.068 µM)
- MIC (E. coli Neumann; [13]): 0.03 µg/mL (≈ 0.068 µM)
- MIC [6, 14]: 0.03 µg/mL (≈ 0.068 µM)

SMILES: C=Cc1c(F)c(N2CC3CCOC3(CN)C2)c(F)c2c1c(=O)c(C(=O)O)cn2C1CC1 (stereo not shown) [Compound 11, 7-(6a-aminomethylhexahydro-furo[2,3-c]pyrrol-5-yl)-1-cyclopropyl-6,8-difluoro-1,4-dihydro-4-oxo-5-vinyl-3-quinolinecarboxyllc acid hydrochloride]
- MIC [1, 7]: 0.015 µg/mL
- MIC [2, 8]: 0.5 µg/mL
- MIC [3, 9]: 0.015 µg/mL
- MIC [4, 10]: 0.125 µg/mL
- MIC (Enterobater aer.ICB 5240; 20 h): 32 µg/mL
- MIC [5, 12]: 0.125 µg/mL
- MIC (E. coli Neumann; [13]): 0.03 µg/mL
- MIC [6, 14]: 0.125 µg/mL

SMILES: CCc1c(F)c(N2CCN(C)CC2)c(F)c2c1c(=O)c(C(=O)O)cn2C1CC1 [Compound K, 1-cyclopropyl-5-ethyl-6,8-difluoro-1,4-dihydro-7-(4-methyl-1-piperazinyl)-4-oxo-3-quinolinecarboxylic acid, reference compound]
- MIC [1, 7]: 16 µg/mL (≈ 40.9 µM)
- MIC [2, 15]: 64 µg/mL (≈ 164 µM)
- MIC [3, 16]: 8 µg/mL (≈ 20.4 µM)
- MIC ([4]; 20 h): 1 µg/mL (≈ 2.55 µM)
- MIC (Enterobater aer.ICB 5240; [11]): ≤ 128 µg/mL
- MIC [5, 12]: 64 µg/mL (≈ 164 µM)
- MIC (E. coli Neumann; 20 h): 0.25 µg/mL (≈ 0.639 µM)
- MIC [6, 14]: 64 µg/mL (≈ 164 µM)

SMILES: CCN1CCN(c2cc3c(cc2F)c(=O)c(C(=O)O)cn3C2CC2)CC1 [ENRO, enrofloxacin, reference compound]
- MIC (Staph. Ky 469 We): 0.12 µg/mL (≈ 0.334 µM)
- MIC (Staph. Z433-4 LH): 0.25 µg/mL (≈ 0.696 µM)
- MIC (E. coli G293 Lh): 32 µg/mL (≈ 89 µM)
- MIC (E. coli 21 Bui): 32 µg/mL (≈ 89 µM)
- MIC (Staph. Z 318 Lh): 8 µg/mL (≈ 22.3 µM)
